One assay has as its target T1, PPAR beta/delta (Homo sapiens, UniProt Q03181).
T1 construct: expressed in transfected cells; host or cells: WPMY-1 human myofibroblasts, transient transfection with PEI
T1 sequence (Q03181 1-441): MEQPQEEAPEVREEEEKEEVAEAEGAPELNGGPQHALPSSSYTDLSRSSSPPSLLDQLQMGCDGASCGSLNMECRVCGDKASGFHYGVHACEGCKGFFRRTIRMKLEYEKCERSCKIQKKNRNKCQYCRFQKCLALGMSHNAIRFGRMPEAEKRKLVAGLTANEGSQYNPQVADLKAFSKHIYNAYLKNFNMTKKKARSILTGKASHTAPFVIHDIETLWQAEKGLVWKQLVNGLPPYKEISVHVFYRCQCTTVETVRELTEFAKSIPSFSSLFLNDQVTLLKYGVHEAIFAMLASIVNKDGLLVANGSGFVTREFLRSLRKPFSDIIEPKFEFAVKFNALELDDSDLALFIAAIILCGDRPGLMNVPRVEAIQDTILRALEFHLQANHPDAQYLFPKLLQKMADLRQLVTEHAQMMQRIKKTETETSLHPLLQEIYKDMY
In words: Agonist-induced transcriptional activity, luciferase reporter in WPMY-1 cells. As to conditions: human WPMY-1 myofibroblasts, 500 nM substance, 500 nM agonist L165041. In kind it is cell-based. How it is done:
FIG. 4: Effect of the substances of this invention comparative compound (CC) 2, compound 1, compound 5, compound 2 and compound 3 on the agonist-induced transcriptional activity of PPAR subtypes alpha (A), beta/delta (B) and gamma (C). • WPMY-1 cells are transiently transfected with a luciferase reporter plasmid. Four hours after transfection, cells are treated for 48 hours with the respective antagonist (500 nM), followed by a treatment with 300 nM of PPAR alpha agonist GW7647 (A), 500 nM of PPAR beta/delta agonist L165041 (B) or 300 nM of PPAR gamma agonist GW1929 (C). The relative induction is represented by the luciferase activity of the agonist-treated transfected cells in relation to solvent-treated transfected cells. Asterisks (**, *) indicate significant differences to untreated cells (after t-test; **: p<0.01; *: p<0.05). GW7647 is commercially available from Sigma-Aldrich (Steinheim, Germany). L165041 and GW1929 can be obtained from Biozol (Eching, Germany).
D) The influence of substances of this invention on the agonist-induced transcriptional activity of PPAR subtypes alpha, beta/delta or gamma is determined in WPMY-1 myofibroblasts transfected transiently with a luciferase reporter plasmid (LexA system) using polyethyleneimine (PEI) according to a method known to the expert. As agonists, substances GW7647 for PPAR alpha or L165041 for PPAR beta/delta or GW1929 for PPAR gamma known to the expert are used. WPMY-1 myofibroblast cells are initially cultured for example in a 12-well plate in DMEM medium (DMEM: Dulbecco's Modified Eagle Medium) according to a method known to the expert and to a confluence of 70% to 80%, and subsequently transfected with 2.5 μg of plasmid-DNA containing the luciferase reporter plasmid, expression plasmids for the respective PPAR subtypes and the Renilla-luciferase plasmid pRL-SV40 (Promega, Mannheim, Germany), and 2.5 μl PEI (1:1000 dilution, pH 7). Four hours after transfection, the cells are treated for 48 hours with 500 nM of the substances of this invention, and 24 later with 300 nM (GW7647 or GW1929, respectively) or 500 nM (L165041) of the respective agonist at 37° C. and 5% CO2 in an incubator. The luciferase assay is performed 48 hours after the first treatment according to the commercial method of the “dual-well-system” (pjk GmbH, Kleinblittersdorf, Germany), whereby for a normalization, not only the luciferase-, but also the Renilla activity is measured. Cells are initially lysed for this measurement, and 20 μl of the lysate is transferred into a white 96-well plate (Fisher Scientific, Hamburg, Germany). […] Mean values and standard deviation are calculated from values of three independent measurements.
A general note: Reporter assays use an easily measured gene product as a stand-in for the process of interest.

The next assay addresses T2, GST-PPAR beta/delta LBD (Homo sapiens, UniProt Q03181).
T2 construct: GST-PPAR beta/delta LBD (GST=glutathione S-transferase); purchased Invitrogen, Darmstadt, Germany
T2 sequence (Q03181 211-439 limits assumed): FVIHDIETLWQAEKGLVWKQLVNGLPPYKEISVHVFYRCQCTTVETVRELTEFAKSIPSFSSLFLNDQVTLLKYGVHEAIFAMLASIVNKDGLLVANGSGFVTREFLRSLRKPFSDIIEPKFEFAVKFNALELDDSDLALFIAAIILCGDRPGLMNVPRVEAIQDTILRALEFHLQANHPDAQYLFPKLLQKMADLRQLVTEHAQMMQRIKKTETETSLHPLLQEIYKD
In words: Competitive in vitro ligand binding, TR-FRET, displacement of Fluormone Pan-PPAR-Green. The settings on record: fluorescence ratio 520 nm/495 nm. How it is done:
FIG. 1: Competitive in vitro ligand binding to PPAR beta/delta. • The displacement of ligand Fluormone® Pan-PPAR Green from recombinant GST-PPAR beta/delta ligand binding domain (LBD) by the substances of the present invention comparative compound (CC) 2, compound 1 (A), compound 2 (B), and compound 3 (C), compound 4 (D), compound 5 (E) is determined by TR-FRET analysis. Shown is the ratio of fluorescence intensity at 520 nm (fluorescein emission, excited by terbium emission) and 495 nm (terbium emission). All data points represent average values of triplicates (+/−standard deviation).
A) Competitive ligand-binding of the substances of this invention was measured in vitro using time-resolved fluorescence resonance energy transfer (TR-FRET) by competition with the commercially available fluorescent Fluormone® Pan-PPAR-Green for binding to the fusion protein GST-PPAR beta/delta LBD (GST=glutathione S-transferase; LBD=ligand binding domain) (Invitrogen, Darmstadt, Germany) in a VICTOR3V Multilabel Counter (WALLAC 1420; PerkinElmer Life and Analytical Sciences, Rodgau, Germany). The measurement was performed in 100 mM KC, 20 mM Tris pH 7.9, 0.01% Triton X100 and 1 μg/μL bovine serum albumin. GST is known to the expert in the field as suitable fusion partner for proteins. For this purpose, the ratio of fluorescence intensities at 520 nm (fluorescein emission excited by terbium emission) and at 495 nm (terbium emission) is determined.

“Also recorded” adds a separate entry of the source.

As for `CCCCCCNc1ccc(NS(=O)(=O)c2ccsc2C(=O)OC)c(OC)c1` [compound 1, methyl 3-(N-(4-(hexylamino)-2-methoxyphenyl)sulfamoyl)thiophene-2-carboxylate], the “agonist-induced transcriptional activity of PPAR beta/delta (luciferase induction)” value on PPAR beta/delta was “inhibited in a PPAR subtype-specific manner”. Also, the “competition with Fluormone Pan-PPAR-Green for binding to GST-PPAR beta/delta LBD” value (from here on “competition … to GST-PPAR beta/delta LBD”) at GST-PPAR beta/delta LBD is listed as “significant competition efficacy; also recorded: significant competition efficiency”.

With `CCCCCCNc1ccc(NS(=O)(=O)c2ccsc2C(=O)OC)cc1OC` [compound 2, methyl 3-(N-(4-(hexylamino)-3-methoxyphenyl)sulfamoyl)thiophene-2-carboxylate], on PPAR beta/delta, the “agonist-induced transcriptional activity of PPAR beta/delta (luciferase induction)” value is given as “inhibited in a PPAR subtype-specific manner”. Further, on GST-PPAR beta/delta LBD, the “competition … to GST-PPAR beta/delta LBD” value is “significant competition efficacy; also recorded: significant competition efficiency”.

`COC(=O)c1sccc1S(=O)(=O)Nc1ccc(NC(C)(C)C)cc1OC` [compound 5, methyl 3-(N-(4-(tert-butylamino)-2-methoxyphenyl)sulfamoyl)thiophene-2-carboxylate]: the “agonist-induced transcriptional activity of PPAR beta/delta (luciferase induction)” value at PPAR beta/delta was “inhibited in a PPAR subtype-specific manner”. For the same compound, the “competition … to GST-PPAR beta/delta LBD” value on GST-PPAR beta/delta LBD is listed as “significant competition efficacy; also recorded: significant competition efficiency”.

For the origin of these results see US20150018411A1, “COMPOUNDS AS PPAR BETA/DELTA INHIBITORS FOR TREATING PPAR BETA/DELTA-MEDIATED DISEASES” (PHILIPPS-UNIVERSITAT MARBURG, priority 2011, published 2015).
